Source: patent publication US20140363406A1, “ESTROGEN METABOLITE LEVELS AND CYP1B1 POLYMORPHISMS IN LUNG CANCER DIAGNOSIS, PROGNOSIS, AND RISK ASSESSMENT” (Institute for Cancer Research d/b/a The Research Institute …, priority 2012, published 2014)

Target: T1, CYP1B1 (Mus musculus, UniProt Q64429)
T1 sequence (Q64429 1-543): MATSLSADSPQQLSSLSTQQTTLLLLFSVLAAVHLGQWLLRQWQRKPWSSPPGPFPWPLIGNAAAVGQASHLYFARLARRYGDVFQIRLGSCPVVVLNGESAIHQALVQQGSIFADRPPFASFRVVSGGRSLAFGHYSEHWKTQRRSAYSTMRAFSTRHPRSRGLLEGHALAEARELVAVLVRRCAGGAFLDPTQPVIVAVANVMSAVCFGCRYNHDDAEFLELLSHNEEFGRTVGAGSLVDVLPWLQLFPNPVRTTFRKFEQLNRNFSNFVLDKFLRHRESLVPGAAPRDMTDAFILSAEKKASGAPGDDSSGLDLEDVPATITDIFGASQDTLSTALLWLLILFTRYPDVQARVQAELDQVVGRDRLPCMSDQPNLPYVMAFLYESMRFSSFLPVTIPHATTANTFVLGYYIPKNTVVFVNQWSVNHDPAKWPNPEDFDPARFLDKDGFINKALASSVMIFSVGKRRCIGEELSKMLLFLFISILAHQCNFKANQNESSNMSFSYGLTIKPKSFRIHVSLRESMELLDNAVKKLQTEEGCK
Assay: Impact of Cyp1b1 deletion on lung estrogen/EM levels (Cyp1b1-KO vs Cyp1b1-WT 129SvJ mice), LC-MS2
Method: Animals. […] Smoke exposures were performed on female C57/B6 mice (1.5-2 years old) carrying a human APOE*4 transgene that were part of an atherosclerosis study at Duke University and fed a high-fat diet TD.88051. Animals had free access to food and water. All animal experimentation was approved by the Institutional Animal Care and Use Committees at Fox Chase Cancer Center and Duke University.
Genotyping. PCR-based genotyping of Cyp1b1 wild-type (Cyp1b1-WT) and knockout (Cyp1b1-K0) mice was performed using Choice Taq Blue DNA Polymerase Master mix (Denville Scientific, South Plainfield, N.J.) according to the following protocol: Wild-type primers—[…]
Lung tissue collection. Following euthanasia, the lungs were perfused by intracardiac injection with 30 ml phosphate buffered saline to flush out the blood. Perfused tissues were snap-frozen in liquid nitrogen and stored at −80° C. The accessory lobe of the lung was reserved for RNA extraction, whereas the remaining lobes were processed for estrogen metabolite analyses.
Sample preparation. Lung tissue samples (0.1-0.2 g per sample) from Cyp1b1-WT or Cyp1b1-KO mice (female and male, 12-14 weeks of age, n=4-5 per group) were thawed at room temperature, minced with scissors and transferred into 1.5 ml Eppendorf tubes. […] The tissue was homogenized on ice using a Tissue Tearor™ (Cole-Parmer, Vernon Hills, Ill.) at low and high speeds in two consecutive 15 s increments for a total of 30 s, and further sonicated on ice (five cycles of 10 s pulses with 10 s breaks between pulses). Eight milliliters of ethanol:acetone and […] each of stable isotope-labeled estrogen internal standards (0.32 ng/ml working standard solutions) were added to each tissue homogenate. The mixture was incubated on a rotator at room temperature for 1 h and centrifuged at 3000 ×g for 30 min. The ethanol:acetone tissue extract was transferred to a clean glass tube and dried under nitrogen gas at 60° C. for 60 min (Reacti-Vap III™, Pierce, Rockford, Ill.). The residue was redissolved in 4 ml of methanol, vortexed for 1 min, chilled at -80° C. for 1 h, returned to room temperature and centrifuged at 3000 × g for 20 min. The methanolic phase was transferred to a clean glass tube and dried under nitrogen gas. The residue was redissolved in 100 μl of ethanol and vortexed briefly. This step was followed by the addition of 1.5 ml of 100 mM sodium acetate buffer, pH 4.6, and 5 ml of dichloromethane to the residue and incubation at room temperature on a rotator for 30 min.
The extract was chilled at −80° C. for 10 min, returned to room temperature and centrifuged at 3000 × g for 20 min. The dichloromethane phase was transferred to a clean tube and dried. To each dried sample, 40 μl of 0.1 M sodium bicarbonate buffer, pH 9.0, and 40 μl of dansyl chloride solution (1 mg/ml in acetone) were added. After vortexing for 10 s, samples were heated at 70° C. (Reacti-Therm III™ Heating Module, Pierce, Rockford, Ill.) for 10 min to form the EM and SI-EM dansyl derivatives. All samples were centrifuged at 3000 ×g for 20 min and analyzed using LC-M5^2. The efficiency of extracting estrogen and its metabolites from the tissue cannot be measured accurately because a known amount of each metabolite cannot be placed in the tissue prior to extraction. Furthermore, the amount of estrogens/EM present at baseline is unknown.
LC-MS^2 analysis was performed using a Shimadzu Prominence UFLC system (Shimadzu Scientific Instruments, Columbia, Md.) coupled with a TSQ™ Quantum Ultra triple quadrupole mass spectrometer (Thermo Electron, San Jose, Calif.). The LC separation was carried out on a 50 mm long×2 mm […] column packed with 2.5 μm Synergi Hydro-RP particles (Phenomenex, Torrance, Calif.) maintained at 40° C. A 20 μl aliquot of each sample was injected onto the column.

C[C@]12CC[C@@H]3c4cc(O)c(O)cc4CC[C@H]3[C@@H]1CCC2=O [2-OHE1, 2-hydroxyestrone]
percentage of total estrogen, male versus female (in words) (Cyp1b1-KO mice): no significant difference | increase in lung level in Cyp1b1-KO compared with WT controls (females): 3 fold | increase in lung level in Cyp1b1-KO compared with WT controls (males): 1.7 fold

C[C@]12CC[C@@H]3c4ccc(O)c(O)c4CC[C@H]3[C@@H]1CCC2=O [4-OHE1, 4-hydroxyestrone]
decrease in lung level by deletion of Cyp1b1 (female Cyp1b1-KO vs WT): 21 fold | lung level in Cyp1b1-KO as % of WT controls (females): 4.7% | decrease in lung level by deletion of Cyp1b1 (male Cyp1b1-KO vs WT): 14 fold | lung level in Cyp1b1-KO as % of WT controls (males): 7.4%

C[C@]12CC[C@@H]3c4ccc(O)c(O)c4CC[C@H]3[C@@H]1CC[C@@H]2O [4-OHE2, 4-hydroxyestradiol]
lung level reduced in Cyp1b1-KO compared with Cyp1b1-WT controls (both sexes): ~50% | lung level reduced in Cyp1b1-KO compared with Cyp1b1-WT controls (females): 60% | lung level reduced in Cyp1b1-KO compared with Cyp1b1-WT controls (males): 56%
